Experiments:
Salmonella typhimurium [1] = experiment: Antimutagenic activity in Salmonella Typhimurium T-100 assessed as inhibition of ethyl methanesulfonate-induced mutation at 300 ug/plate; format: functional, Salmonella enterica subsp. enterica serovar Typhimurium
Salmonella typhimurium [2] = experiment: Antimutagenic activity in Salmonella Typhimurium T-100 assessed as inhibition of ethyl methanesulfonate-induced mutation at 75 ug/plate; format: functional, Salmonella enterica subsp. enterica serovar Typhimurium
Salmonella typhimurium [3] = experiment: Antimutagenic activity in Salmonella Typhimurium T-100 assessed as inhibition of ethyl methanesulfonate-induced mutation at 150 ug/plate; format: functional, Salmonella enterica subsp. enterica serovar Typhimurium
Salmonella typhimurium [4] = experiment: Toxicity to Salmonella Typhimurium at 0.6 mg/plate; format: organism-based, Salmonella enterica subsp. enterica serovar Typhimurium; settings: in vivo
Salmonella typhimurium [5] = experiment: Antimutagenic activity in Salmonella Typhimurium T-98 assessed as inhibition of acetylaminofluorene-induced mutation at 75 ug/plate; format: functional, Salmonella enterica subsp. enterica serovar Typhimurium
Salmonella typhimurium [6] = experiment: Antimutagenic activity in Salmonella Typhimurium T-98 assessed as inhibition of 2-aminoanthracene-induced mutation at 75 ug/plate; format: functional, Salmonella enterica subsp. enterica serovar Typhimurium
Salmonella typhimurium [7] = experiment: Antimutagenic activity in Salmonella Typhimurium T-98 assessed as inhibition of acetylaminofluorene-induced mutation at 150 ug/plate; format: functional, Salmonella enterica subsp. enterica serovar Typhimurium
Salmonella typhimurium [8] = experiment: Antimutagenic activity in Salmonella Typhimurium T-98 assessed as inhibition of 2-aminoanthracene-induced mutation at 300 ug/plate; format: functional, Salmonella enterica subsp. enterica serovar Typhimurium
Salmonella typhimurium [9] = experiment: Toxicity to Salmonella Typhimurium at 0.3 mg/plate; format: organism-based, Salmonella enterica subsp. enterica serovar Typhimurium; settings: in vivo
Salmonella typhimurium [10] = experiment: Antimutagenic activity in Salmonella Typhimurium T-98 assessed as inhibition of 2-aminoanthracene-induced mutation at 150 ug/plate; format: functional, Salmonella enterica subsp. enterica serovar Typhimurium
Salmonella typhimurium [11] = experiment: Antimutagenic activity in Salmonella Typhimurium T-98 assessed as inhibition of 2-aminoanthracene-induced mutation at 37.5 ug/plate; format: functional, Salmonella enterica subsp. enterica serovar Typhimurium
Salmonella typhimurium [12] = experiment: Antimutagenic activity in Salmonella Typhimurium T-98 assessed as inhibition of acetylaminofluorene-induced mutation at 37.5 ug/plate; format: functional, Salmonella enterica subsp. enterica serovar Typhimurium
Salmonella typhimurium [13] = experiment: Antimutagenic activity in Salmonella Typhimurium T-98 assessed as inhibition of acetylaminofluorene-induced mutation at 300 ug/plate; format: functional, Salmonella enterica subsp. enterica serovar Typhimurium
Salmonella typhimurium [14] = experiment: Antimutagenic activity in Salmonella Typhimurium T-100 assessed as inhibition of ethyl methanesulfonate-induced mutation at 37.5 ug/plate; format: functional, Salmonella enterica subsp. enterica serovar Typhimurium

In the case of COc1ccc(/C=C2\COc3c(ccc(O)c3O)C2=O)cc1 [INTRICATINOL], the “inhibition (INH)” value (Salmonella typhimurium [1]) is reported as 74%, the “inhibition (INH)” value (Salmonella typhimurium [2]) is reported as 74% and the “inhibition (INH)” value (Salmonella typhimurium [3]) is reported as 82%. For the same compound, the Activity (Salmonella typhimurium [4]) was “Non-toxic”, the “inhibition (INH)” value (Salmonella typhimurium [5]) was 48% and the “inhibition (INH)” value (Salmonella typhimurium [6]) was 36%. For the same compound, the “inhibition (INH)” value (Salmonella typhimurium [7]) was 54%, the “inhibition (INH)” value (Salmonella typhimurium [8]) was 87% and the Activity (Salmonella typhimurium [9]) was “Non-toxic”. The “inhibition (INH)” value (Salmonella typhimurium [10]) was 57%, the “inhibition (INH)” value (Salmonella typhimurium [11]) was 8% and the “inhibition (INH)” value (Salmonella typhimurium [12]) was 26%. The “inhibition (INH)” value (Salmonella typhimurium [13]) was 70% and the “inhibition (INH)” value (Salmonella typhimurium [14]) was 30%.
COc1ccc(/C=C2\COc3c(ccc(OC)c3O)C2=O)cc1 [INTRICATIN] was tested, and the “inhibition (INH)” value (Salmonella typhimurium [1]) was 45%, the “inhibition (INH)” value (Salmonella typhimurium [2]) was 4% and the “inhibition (INH)” value (Salmonella typhimurium [3]) was 27%. For the same compound, the Activity (Salmonella typhimurium [4]) was “Non-toxic”, the “inhibition (INH)” value (Salmonella typhimurium [5]) was 0% and the “inhibition (INH)” value (Salmonella typhimurium [6]) was 92%. The “inhibition (INH)” value (Salmonella typhimurium [7]) was 0%, the “inhibition (INH)” value (Salmonella typhimurium [8]) was 62% and the Activity (Salmonella typhimurium [9]) was “Non-toxic”. The “inhibition (INH)” value (Salmonella typhimurium [10]) was 84%, the “inhibition (INH)” value (Salmonella typhimurium [11]) was 70% and the “inhibition (INH)” value (Salmonella typhimurium [12]) was 8%. For the same compound, the “inhibition (INH)” value (Salmonella typhimurium [13]) was 7% and the “inhibition (INH)” value (Salmonella typhimurium [14]) was 9%.

From ChEMBL document CHEMBL1147295, “Plant antimutagens, 6. Intricatin and intricatinol, new antimutagenic homoisoflavonoids from Hoffmanosseggia intricata” (J Nat Prod, 1989)
